The values below are quoted from earlier work in patent US9358209B2, “Econazole composition and methods of treatment therewith” (Exeltis USA Dermatology, Inc., priority 2010, dated 2016).

The conditions of data set [1]: Liao et al., Yao Xue Xue Bao 28(1):22-7 (1993).
For a further data set, the system named is dermatophytes and yeasts. The settings on record: most strains of E. floccosum, M. audouinii, M. canis, M. gypseum, T. mentagrophytes, T. rubrum, T. tonsurans, C. albicans, M. furfur.

For the compound `Clc1ccc(CO[C@@H](Cn2ccnc2)c2ccc(Cl)cc2Cl)cc1` [(R)-(−)-econazole], the “antifungal activity relative to other stereoisomer” value in data set [1] is on record as “greater antifungal activity”.
With `Clc1ccc(COC(Cn2ccnc2)c2ccc(Cl)cc2Cl)cc1` (centres unmarked) [Econazole nitrate], the “activity against dermatophytes and yeasts” value with dermatophytes and yeasts is listed as “has shown activity”.
